This is an account of results in ChEMBL document CHEMBL5653610, “The novel phosphodiesterase 10A inhibitor THPP-1 has antipsychotic-like effects in rat and improves cognition in rat and rhesus monkey” (Neuropharmacology, 2013).

Activity calls are given as the source filed them. No cut-off for these calls is given here.

In the experiment the test system is Rattus norvegicus. The experiment in a line: Antipsychotic activity in Wistar Hannover rat assessed as increase in recognition at 0.56 mg/kg, ip dosed 30 mins before identical objects by novel object recognition test. It counts as functional, organism-based.

With `COc1cc2c(cc1OC)C(=O)C(CC1CCN(Cc3ccccc3)CC1)C2` (stereo unspecified), the outcome was Active.
